A short description of series [1]: Stability in mouse plasma assessed as parent compound remaining measured after 2 hrs by LC-MS/MS analysis. The note with it: read-out: Stabilty. Format: ADME, cell-free.
The nature of series [2]: Stability in human plasma assessed as parent compound remaining measured after 24 hrs by LC-MS/MS analysis. It counts as ADME, cell-free. As to conditions: read-out: Stabilty.
A short description of series [3]: Change in normalised Cmax in rat at 50 mg/kg, po measured upto 72 hrs by LC-MS/MS analysis. As to conditions: in vivo. It counts as ADME, organism-based.
Series [4] is described as follows: Chemical stability of compound in 0.1 N aqueous HCl buffer assessed as compound remaining at pH 1 at 5 uM measured after 1.5 hrs by LC-MS/MS analysis. It counts as physicochemical. As to conditions: pH 1, 1.5 h.
Series [5] can be described thus: Stability in human plasma assessed as parent compound remaining measured after 6 hrs by LC-MS/MS analysis. The note with it: read-out: Stabilty. It counts as ADME, cell-free.
Series [6] is described as follows: Stability in rat plasma assessed as parent compound remaining measured after 2 hrs by LC-MS/MS analysis. Format: ADME, cell-free. The note with it: read-out: Stabilty.
The nature of series [7]: Chemical stability of compound in simulated intestinal fluid assessed as compound remaining at 5 uM measured after 24 hrs by LC-MS/MS analysis. Format: ADME, physicochemical. As to conditions: read-out: Stabilty.
Series [8] can be described thus: Chemical stability of compound in PBS buffer assessed as compound remaining at pH 7.4 at 5 uM measured after 24 hrs by LC-MS/MS analysis. Format: physicochemical. As to conditions: read-out: Stabilty.
Series [9] is described as follows: Chemical stability of compound in simulated gastric fluid assessed as compound remaining at 5 uM measured after 1.5 hrs by LC-MS/MS analysis. Format: ADME, physicochemical. As to conditions: read-out: Stabilty.
The nature of series [10]: Chemical stability of compound in saline assessed as compound remaining at 5 uM measured after 24 hrs by LC-MS/MS analysis. As to conditions: read-out: Stabilty. It counts as physicochemical.
A short description of series [11]: Change in normalised Cmax in rat at 10 mg/kg, po measured upto 72 hrs by LC-MS/MS analysis. As to conditions: in vivo. It counts as ADME, organism-based.
Series [12] can be described thus: Dose normalized AUC (0 to infinity) in rat at 10 mg/kg, po measured upto 72 hrs by LC-MS/MS analysis. It counts as ADME, organism-based. As to conditions: in vivo.
Series [13] in a line: Change in normalised AUCinfinity in rat at 10 mg/kg, po measured upto 72 hrs by LC-MS/MS analysis. Format: ADME, organism-based. As to conditions: in vivo.
Series [14] in a line: Chemical stability of compound in simulated intestinal fluid assessed as compound remaining at 5 uM measured after 3 hrs by LC-MS/MS analysis. It counts as ADME, physicochemical. As to conditions: read-out: Stabilty.
A short description of series [15]: Dose normalized AUC (0 to infinity) in rat at 50 mg/kg, po measured upto 72 hrs by LC-MS/MS analysis. As to conditions: in vivo. Format: ADME, organism-based.
Series [16] in a line: Dose normalized Cmax in rat at 50 mg/kg, po measured upto 72 hrs by LC-MS/MS analysis. The note with it: in vivo. It counts as ADME, organism-based.
A short description of series [17]: Chemical stability of compound in 0.1 N aqueous HCl buffer assessed as compound remaining at pH 1 at 5 uM measured after 24 hrs by LC-MS/MS analysis. Format: physicochemical. The note with it: pH 1, 24 h.
Series [18] can be described thus: Chemical stability of compound in simulated gastric fluid assessed as compound remaining at 5 uM measured after 24 hrs by LC-MS/MS analysis. Format: ADME, physicochemical. The note with it: read-out: Stabilty.
Series [19] in a line: Chemical stability of compound in PBS buffer assessed as compound remaining at pH 7.4 at 5 uM measured after 6 hrs by LC-MS/MS analysis. Format: physicochemical. As to conditions: read-out: Stabilty.
A short description of series [20]: Change in normalised AUC (infinity) in rat at 50 mg/kg, po measured upto 72 hrs by LC-MS/MS analysis. It counts as ADME, organism-based. The note with it: in vivo.
The nature of series [21]: Dose normalized Cmax in rat at 10 mg/kg, po measured upto 72 hrs by LC-MS/MS analysis. It counts as ADME, organism-based. As to conditions: in vivo.
Series [22] relates to B16-F10. Description: Antitumor activity against mouse B16-F10 cells implanted in C57BL/6 mouse assessed as reduction in tumor size at >= 287 micromol/kg, po BID administered from day 6 to day 11 and measured on day 11 by caliper method. Format: functional, organism-based. The note with it: dose micromol/kg >=287.
Series [23] in a line: Change in AUC (infinity) in rat at 37 umol/kg, po measured upto 72 hrs by LC-MS/MS analysis. Format: ADME, organism-based. As to conditions: in vivo, at 37 µmol/kg.
Series [24] can be described thus: Change in Cmax in rat at 37 umol/kg, po measured upto 72 hrs by LC-MS/MS analysis. The note with it: in vivo, at 37 µmol/kg. Format: ADME, organism-based.
Series [25] can be described thus: Change in Cmax in rat at 185 umol/kg, po measured upto 72 hrs by LC-MS/MS analysis. The note with it: in vivo, at 185 µmol/kg. Format: ADME, organism-based.
Series [26] in a line: Change in Cmax in cynomolgus monkey at 825 umol/kg, po measured after 0.083 to 48 hrs by LC-MS/MS analysis. Format: ADME, organism-based, Macaca fascicularis. The note with it: in vivo, at 825 µmol/kg, time 0.083-48 hrs.
Series [27] in a line: Change in Cmax in cynomolgus monkey at 92 umol/kg, po measured after 0.083 to 48 hrs by LC-MS/MS analysis. As to conditions: in vivo, at 92 µmol/kg, time 0.083-48 hrs. It counts as ADME, organism-based, Macaca fascicularis.
Series [28] can be described thus: Change in AUC(infinity) in cynomolgus monkey at 825 umol/kg, po measured after 0.083 to 48 hrs by LC-MS/MS analysis. Format: ADME, organism-based, Macaca fascicularis. As to conditions: in vivo, at 825 µmol/kg, time 0.083-48 hrs.
Series [29] can be described thus: Change in AUC(infinity) in rat at 500 umol/kg, po measured upto 72 hrs by LC-MS/MS analysis. It counts as ADME, organism-based. The note with it: in vivo, at 500 µmol/kg.
Series [30] is described as follows: Change in AUC(infinity) in cynomolgus monkey at 92 umol/kg, po measured after 0.083 to 48 hrs by LC-MS/MS analysis. Format: ADME, organism-based, Macaca fascicularis. As to conditions: in vivo, at 92 µmol/kg, time 0.083-48 hrs.
Series [31] in a line: Change in AUC(infinity) in cynomolgus monkey at 275 umol/kg, po measured after 0.083 to 48 hrs by LC-MS/MS analysis. Format: ADME, organism-based, Macaca fascicularis. As to conditions: in vivo, at 275 µmol/kg, time 0.083-48 hrs.
A short description of series [32]: Change in Cmax in cynomolgus monkey at 275 umol/kg, po measured after 0.083 to 48 hrs by LC-MS/MS analysis. As to conditions: in vivo, at 275 µmol/kg, time 0.083-48 hrs. Format: ADME, organism-based, Macaca fascicularis.
The nature of series [33]: Change in Cmax in rat at 500 umol/kg, po measured upto 72 hrs by LC-MS/MS analysis. As to conditions: in vivo, at 500 µmol/kg. It counts as ADME, organism-based.

Consider six compounds from ChEMBL document CHEMBL4837181 (Eur J Med Chem, 2020).

Calls of active or inactive are those of the source. The rule behind the calls is not given here.

Turning to `CCOC(=O)[C@H](N)Cc1cn(C)c2ccccc12.Cl`, the remaining at 2 h in series [1] and in series [6] was 0% in each case. Also, the remaining at 24 h in series [2] stood at 35%. Further, the Activity in series [3] was 143%; in series [11], 27%; in [13], -11%; in [20], 126%. Further, the Stabilty in [4] was determined as 59%; in [17], 100%. For the same compound, the remaining at 6 h in series [5] came out at 93%. Besides, the remaining at 24 h, 5 µM is 0% in series [7], 52% in [8], 100% in series [10] and 85% in [18]. Moreover, the remaining at 1.5 h, 5 µM in [9] was 83%. Also, the AUC/dose in series [12] was 454 µM·h; in series [15], 2988 µM·h. Further, the remaining at 3 h, 5 µM in series [14] is 64%. In addition, the values for the Cmax/dose in series [16] and in series [21] were 66 µM and 22 µM, respectively. In addition, in series [19], the remaining at 6 h, 5 µM turned out to be 94%.
For `CCOC(=O)[C@@H](Cc1cn(C)c2ccccc12)NC(=O)[C@@H](N)CC(C)C`, the result in series [22] was Active.
In the case of `CCOC(=O)[C@@H](Cc1cn(C)c2ccccc12)NC(=O)[C@@H](N)CCSC.O=P(O)(O)O`, the Activity is listed as 2% in [23], 32% in [24] and 49% in series [25].
On to `CCOC(=O)[C@@H](Cc1cn(C)c2ccccc12)NC(=O)[C@@H](N)CCSC.Cl`, for which the Activity in [23] is 13%; in series [26], 411%; in series [27], 305%; in [24], 21%; in series [28] it was 369%; in series [29], 49%. Moreover, the Activity in [30] was found to be 136%; in series [25], 152%; in series [31] it was 393%; in series [32] it was 402%; in series [33], 59%.
Regarding `CCOC(=O)[C@@H](Cc1cn(C)c2ccccc12)NC(=O)[C@@H](N)CC(C)C.O=P(O)(O)O`, the results for the Activity in [23], in series [24] and in [25] were 61%, 84% and 69%, respectively.
As for `Cn1cc(C[C@@H](N)C(=O)OCC(O)CO)c2ccccc21.O=P(O)(O)O` (some centres not stated), the Activity in series [23] is 46%; in series [24], 37%; in series [25], 153%.
